{"source": "patent US6358885B1", "about": "“Substituted phenylheterocyclic herbicides” (Mississippi State University, priority 1992, dated 2002)", "key": {"[1]": {"test_system": "crabgrass", "assay": "Test C preemergence/postemergence greenhouse plant response rating 0 to 100", "type": "in vivo, Digitaria sanguinalis", "outline": "(§1)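 Compounds in non-phytotoxic solvent applied preemergence to sandy loam one day after planting, postemergence at the 1–4 leaf stage, or to ~2.5 cm floodwater over silt loam.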"}, "[2]": {"test_system": "corn", "assay": "Test B preemergence/postemergence greenhouse plant response rating 0 to 10", "type": "in vivo, Zea mays", "conditions": "for Plant response rating, Corn: 0 to 10 scale", "outline": "(§2)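 Postemergence treatment of plants two to eighteen cm tall ran alongside preemergence treatment of planted seed, each using compound in a non-phytotoxic solvent.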"}, "[3]": {"test_system": "barnyardgrass", "assay": "Test C flood test plant response rating 0 to 100", "type": "in vivo, Echinochloa crus-galli", "outline": "as §1"}, "[4]": {"test_system": "downy brome", "assay": "Test C preemergence/postemergence greenhouse plant response rating 0 to 100", "type": "in vivo, Bromus tectorum", "conditions": "for Plant response rating Downy Brome: 125 g/ha, 0 to 100 scale", "outline": "as §1"}, "[5]": {"test_system": "velvetleaf", "assay": "Test C preemergence/postemergence greenhouse plant response rating 0 to 100", "type": "in vivo, Abutilon theophrasti", "conditions": "for Plant response rating, Velvetleaf: 125 g/ha, 0 to 100 scale", "outline": "as §1"}, "[6]": {"test_system": "lambsquarters", "assay": "Test C preemergence/postemergence greenhouse plant response rating 0 to 100", "type": "in vivo, Chenopodium album", "conditions": "for Plant response rating Lambsquarters: 125 g/ha, 0 to 100 scale", "outline": "as §1"}, "[7]": {"test_system": "sugar beet", "assay": "Test C preemergence/postemergence greenhouse plant response rating 0 to 100", "type": "in vivo, Beta vulgaris", "conditions": "for Plant response rating, Sugar beet: 125 g/ha, 0 to 100 scale", "outline": "as §1"}, "[8]": {"test_system": "wheat", "assay": "Test B preemergence/postemergence greenhouse plant response rating 0 to 10", "type": "in vivo, Triticum aestivum", "conditions": "for Plant response rating, Wheat: 0 to 10 scale", "outline": "as §2"}, "[9]": {"test_system": "rice", "assay": "Test B preemergence/postemergence greenhouse plant response rating 0 to 10", "type": "in vivo, Oryza sativa", "conditions": "for Plant response rating, Rice: 0 to 10 scale", "outline": "as §2"}}, "data": [{"smiles": "CCOCOc1cc(-c2nn3c(c2Cl)CCCC3)c(F)cc1Cl", "note": "[Compound 59]", "values": [{"measurement": "Plant response rating, Crabgrass", "setting": "[1]; PREEMERGENCE, 125 g/ha, 0 to 100 scale", "result": 90}, {"measurement": "Plant response rating (0 to 100), Crabgrass", "setting": "[1]; PREEMERGENCE, Rate 2 g/ha", "result": 0}, {"measurement": "Plant response rating (0 to 100), Crabgrass", "setting": "[1]; Rate 8 g/ha, POSTEMERGENCE", "result": 30}, {"measurement": "Plant response rating (0 to 100), Crabgrass", "setting": "[1]; Rate 8 g/ha, PREEMERGENCE", "result": 0}, {"measurement": "Plant response rating (0 to 100), Crabgrass", "setting": "[1]; Rate 31 g/ha, POSTEMERGENCE", "result": 40}, {"measurement": "Plant response rating (0 to 100), Crabgrass", "setting": "[1]; Rate 31 g/ha, PREEMERGENCE", "result": 30}, {"measurement": "Plant response rating, Corn", "setting": "[2]; POSTEMERGENCE, Rate 50 g/ha", "result": 4}, {"measurement": "Plant response rating, Corn", "setting": "[2]; PREEMERGENCE, Rate 50 g/ha", "result": 1}, {"measurement": "Plant response rating (0 to 10 scale), Corn", "setting": "[2]; PREEMERGENCE, Rate 200 g/ha", "result": 2}, {"measurement": "Plant response rating, Corn", "setting": "[2]; Rate 200 g/ha, POSTEMERGENCE", "result": 5}, {"measurement": "Plant response rating (0 to 100), Barnyardgrass 2", "setting": "[3]; POSTEMERGENCE section, flood test, Rate 2 g/ha", "result": 0}, {"measurement": "Plant response rating (0 to 100), Barnyardgrass 2", "setting": "[3]; Rate 8 g/ha, under POSTEMERGENCE head (flood test species)", "result": 90}, {"measurement": "Plant response rating (0 to 100), Barnyardgrass 2", "setting": "[3]; Rate 31 g/ha, under POSTEMERGENCE head (flood test species)", "result": 100}, {"measurement": "Plant response rating Barnyardgrass 2", "setting": "[3]; flood test species listed under POSTEMERGENCE, 125 g/ha, 0 to 100 scale", "result": 100}, {"measurement": "Plant response rating Downy Brome", "setting": "[4]; POSTEMERGENCE", "result": 90}, {"measurement": "Plant response rating (0 to 100), Downy Brome", "setting": "[4]; POSTEMERGENCE, Rate 2 g/ha", "result": 20}, {"measurement": "Plant response rating Downy Brome", "setting": "[4]; PREEMERGENCE", "result": 60}, {"measurement": "Plant response rating (0 to 100), Downy Brome", "setting": "[4]; PREEMERGENCE, Rate 2 g/ha", "result": 0}, {"measurement": "Plant response rating (0 to 100), Downy Brome", "setting": "[4]; Rate 8 g/ha, POSTEMERGENCE", "result": 50}, {"measurement": "Plant response rating (0 to 100), Downy Brome", "setting": "[4]; Rate 8 g/ha, PREEMERGENCE", "result": 0}, {"measurement": "Plant response rating (0 to 100), Downy Brome", "setting": "[4]; Rate 31 g/ha, POSTEMERGENCE", "result": 70}, {"measurement": "Plant response rating (0 to 100), Downy Brome", "setting": "[4]; Rate 31 g/ha, PREEMERGENCE", "result": 30}, {"measurement": "Plant response rating, Velvetleaf", "setting": "[5]; POSTEMERGENCE", "result": 100}, {"measurement": "Plant response rating (0 to 100), Velvetleaf", "setting": "[5]; POSTEMERGENCE, Rate 2 g/ha", "result": 50}, {"measurement": "Plant response rating, Velvetleaf", "setting": "[5]; PREEMERGENCE", "result": 100}, {"measurement": "Plant response rating (0 to 100), Velvetleaf", "setting": "[5]; PREEMERGENCE, Rate 2 g/ha", "result": 0}, {"measurement": "Plant response rating (0 to 100), Velvetleaf", "setting": "[5]; Rate 8 g/ha, POSTEMERGENCE", "result": 70}, {"measurement": "Plant response rating (0 to 100), Velvetleaf", "setting": "[5]; Rate 8 g/ha, PREEMERGENCE", "result": 40}, {"measurement": "Plant response rating (0 to 100), Velvetleaf", "setting": "[5]; Rate 31 g/ha, POSTEMERGENCE", "result": 90}, {"measurement": "Plant response rating (0 to 100), Velvetleaf", "setting": "[5]; Rate 31 g/ha, PREEMERGENCE", "result": 95}, {"measurement": "Plant response rating Lambsquarters", "setting": "[6]; POSTEMERGENCE", "result": 95}, {"measurement": "Plant response rating (0 to 100), Lambsquarters", "setting": "[6]; POSTEMERGENCE, Rate 2 g/ha", "result": 30}, {"measurement": "Plant response rating Lambsquarters", "setting": "[6]; PREEMERGENCE", "result": 100}, {"measurement": "Plant response rating (0 to 100), Lambsquarters", "setting": "[6]; PREEMERGENCE, Rate 2 g/ha", "result": 0}, {"measurement": "Plant response rating (0 to 100), Lambsquarters", "setting": "[6]; Rate 8 g/ha, POSTEMERGENCE", "result": 70}, {"measurement": "Plant response rating (0 to 100), Lambsquarters", "setting": "[6]; Rate 8 g/ha, PREEMERGENCE", "result": 95}, {"measurement": "Plant response rating (0 to 100), Lambsquarters", "setting": "[6]; Rate 31 g/ha, POSTEMERGENCE", "result": 85}, {"measurement": "Plant response rating (0 to 100), Lambsquarters", "setting": "[6]; Rate 31 g/ha, PREEMERGENCE", "result": 100}, {"measurement": "Plant response rating, Sugar beet", "setting": "[7]; POSTEMERGENCE", "result": 100}, {"measurement": "Plant response rating (0 to 100), Sugar beet", "setting": "[7]; POSTEMERGENCE, Rate 2 g/ha", "result": 90}, {"measurement": "Plant response rating, Sugar beet", "setting": "[7]; PREEMERGENCE", "result": 100}, {"measurement": "Plant response rating (0 to 100), Sugar beet", "setting": "[7]; PREEMERGENCE, Rate 2 g/ha", "result": 0}, {"measurement": "Plant response rating (0 to 100), Sugar beet", "setting": "[7]; Rate 8 g/ha, POSTEMERGENCE", "result": 100}, {"measurement": "Plant response rating (0 to 100), Sugar beet", "setting": "[7]; Rate 8 g/ha, PREEMERGENCE", "result": 30}, {"measurement": "Plant response rating (0 to 100), Sugar beet", "setting": "[7]; Rate 31 g/ha, POSTEMERGENCE", "result": 100}, {"measurement": "Plant response rating (0 to 100), Sugar beet", "setting": "[7]; Rate 31 g/ha, PREEMERGENCE", "result": 50}, {"measurement": "Plant response rating, Wheat", "setting": "[8]; POSTEMERGENCE, Rate 50 g/ha", "result": 7}, {"measurement": "Plant response rating, Wheat", "setting": "[8]; PREEMERGENCE, Rate 50 g/ha", "result": 4}, {"measurement": "Plant response rating (0 to 10 scale), Wheat", "setting": "[8]; PREEMERGENCE, Rate 200 g/ha", "result": 4}, {"measurement": "Plant response rating, Wheat", "setting": "[8]; Rate 200 g/ha, POSTEMERGENCE", "result": 6}, {"measurement": "Plant response rating, Rice", "setting": "[9]; POSTEMERGENCE, Rate 50 g/ha", "result": 5}, {"measurement": "Plant response rating, Rice", "setting": "[9]; PREEMERGENCE, Rate 50 g/ha", "result": 0}, {"measurement": "Plant response rating (0 to 10 scale), Rice", "setting": "[9]; PREEMERGENCE, Rate 200 g/ha", "result": 1}, {"measurement": "Plant response rating, Rice", "setting": "[9]; Rate 200 g/ha, POSTEMERGENCE", "result": 5}]}]}
